Source: patent US8716292B2, “Riminophenazines with 2-(heteroaryl)amino substituents and their anti-microbial activity” (priority 2010, dated 2014)
Values after ≈ are worked out from the molar mass of the structure shown.

System: Mycobacterium tuberculosis H37Rv strains
Assay: In vitro assay for antimicrobial susceptibility (microplate Alamar blue MIC)
Assay type: cell-based
Settings: Mycobacterium tuberculosis, H37RV, 7H9, Alamar blue, inhibition ≧90%; read-out: MIC (μg/mL) against H37Rv

| SMILES | MIC |
| --- | --- |
| CC(C)/N=c1\cc2n(-c3ccc(F)cc3)c3ccccc3nc-2cc1Nc1cnccn1 [TBI-1055, 5-(4-Fluorophenyl)-3-(1-methylethyl)imino-2-(pyrazin-2-yl)amino-3,5-dihydrophenazine] | 0.022 µg/mL (≈ 0.0518 µM) |
| COC1CCC(/N=c2\cc3n(-c4ccc(F)cc4)c4ccccc4nc-3cc2Nc2cnccn2)CC1 (stereo not drawn) [TBI-1079, 5-(4-Fluorophenyl)-3-(4-methoxycyclohexyl)imino-2-(pyrazin-2-yl)amino-3,5-dihydrophenazine] | 0.037 µg/mL (≈ 0.0748 µM) |
| Fc1ccc(-n2c3c/c(=N\C4CCOCC4)c(Nc4ccccn4)cc-3nc3ccccc32)cc1 [TBI-1087, 5-(4-Fluorophenyl)-3-(4-tetrahydropyranyl)imino-2-(2-pyridyl)amino-3,5-dihydrophenazine] | 0.028 µg/mL (≈ 0.0601 µM) |
| CC(C)/N=c1\cc2n(-c3ccc(F)cc3)c3ccccc3nc-2cc1Nc1ncccn1 [TBI-1053, 5-(4-Fluorophenyl)-3-(1-methylethyl)imino-2-(pyrimidin-2-yl)amino-3,5-dihydrophenazine] | 0.015 µg/mL (≈ 0.0353 µM) |
| Clc1ccc(-n2c3c/c(=N\C4CCCCC4)c(Nc4cncnc4)cc-3nc3ccccc32)cc1 [TBI-961, 5-(4-Chlorophenyl)-3-cyclohexylimino-2-(pyrimidin-5-yl)amino-3,5-dihydrophenazine] | 0.015 µg/mL (≈ 0.0312 µM) |

Same assay, conditions: Mycobacterium tuberculosis, H37RV, in vitro, Mycobacterium tuberculosis H37Rv strains; read-out: MIC (μg/mL) against H37Rv

| SMILES | MIC |
| --- | --- |
| CSc1ccc(-n2c3c/c(=N\C(C)C)c(Nc4cccnc4)cc-3nc3ccccc32)cc1 [TBI-456, 5-(4-Methylthiophenyl)-3-(1-methylethyl)imino-2-(3-pyridyl)amino-3,5-dihydrophenazine] | 0.05 µg/mL (≈ 0.111 µM) |
| Cc1ncccc1Nc1cc2nc3ccccc3n(-c3ccc(F)cc3)c-2c/c1=N\C1CCC(O)CC1 (stereo not drawn) [TBI-1015, 5-(4-Fluorophenyl)-3-(4-hydroxycyclohexyl)imino-2-(2-methyl-3-pyridyl)amino-3,5-dihydrophenazine] | 0.387 µg/mL (≈ 0.784 µM) |
| COc1ncccc1Nc1cc2nc3ccccc3n(-c3ccc(F)cc3)c-2c/c1=N\C1CCN(C)CC1 [TBI-1005, 5-(4-Fluorophenyl)-3-(N-methyl-4-piperidyl)imino-2-(2-methoxy-3-pyridyl)amino-3,5-dihydrophenazine] | 0.213 µg/mL (≈ 0.419 µM) |
| COc1ccc(Nc2cc3nc4ccccc4n(-c4ccc(F)cc4)c-3c/c2=N\C2CCCCC2)cn1 [TBI-932, 5-(4-Fluorophenyl)-3-cyclohexylimino-2-(6-methoxy-3-pyridyl)amino-3,5-dihydrophenazine] | 0.148 µg/mL (≈ 0.3 µM) |
| COc1ncccc1Nc1cc2nc3ccccc3n(-c3ccccc3)c-2c/c1=N\C1CC1 [TBI-097, 5-Phenyl-3-cyclopropylimino-2-(2-methoxy-3-pyridyl)amino-3,5-dihydrophenazine] | 0.032 µg/mL (≈ 0.0738 µM) |
| Cc1ncccc1Nc1cc2nc3ccccc3n(-c3cccc(OC(F)(F)F)c3)c-2c/c1=N\C(C)C [TBI-1032, 5-(3-Trifluoromethoxyphenyl)-3-(1-methylethyl)imino-2-(2-methyl-3-pyridyl)amino-3,5-dihydrophenazine] | 0.107 µg/mL (≈ 0.213 µM) |
| COc1ccc2nc3cc(Nc4ccc(C)nc4)/c(=N/C4CCCCC4)cc-3n(-c3ccc(Cl)cc3)c2c1 [TBI-869, 7-Methoxy-5-(4-chlorophenyl)-3-cyclohexylimino-2-(6-methyl-3-pyridyl)amino-3,5-dihydrophenazine] | 0.056 µg/mL (≈ 0.107 µM) |
| COc1ncccc1Nc1cc2nc3ccccc3n(-c3ccc(C(F)(F)F)cc3)c-2c/c1=N\C1CCN(C)CC1 [TBI-703, 5-(4-Trifluoromethylphenyl)-3-(N-methyl-4-piperidyl)imino-2-(2-methoxy-3-pyridyl)amino-3,5-dihydrophenazine] | 0.02 µg/mL (≈ 0.0358 µM) |
| COc1ncccc1Nc1cc2nc3ccccc3n(-c3ccc(C(F)(F)F)cc3)c-2c/c1=N\CCN1CCOCC1 [TBI-704, 5-(4-Trifluoromethylphenyl)-3-(2-morpholinoethyl)imino-2-(2-methoxy-3-pyridyl)amino-3,5-dihydrophenazine] | 0.061 µg/mL (≈ 0.106 µM) |
| COc1ccc(Nc2cc3nc4ccccc4n(-c4ccc(C)cc4)c-3c/c2=N\C(C)C)cn1 [TBI-356, 5-(4-Methylphenyl)-3-(1-methylethyl)imino-2-(6-methoxy-3-pyridyl)amino-3,5-dihydrophenazine] | 0.459 µg/mL (≈ 1.02 µM) |
| COc1ncccc1Nc1cc2nc3ccccc3n(-c3cccc(OC(F)(F)F)c3)c-2c/c1=N\C1CCOCC1 [TBI-1041, 5-(3-Trifluoromethoxyphenyl)-3-(4-tetrahydropyranyl)imino-2-(2-methoxy-3-pyridyl)amino-3,5-dihydrophenazine] | 0.115 µg/mL (≈ 0.205 µM) |
| CC(C)/N=c1\cc2n(-c3cccc(Cl)c3)c3ccccc3nc-2cc1Nc1cccnc1 [TBI-810, 5-(3-Chlorophenyl)-3-(1-methylethyl)imino-2-(3-pyridyl)amino-3,5-dihydrophenazine] | 0.103 µg/mL (≈ 0.234 µM) |
| Cc1ccc(-n2c3c/c(=N\C4CCN(CC(C)C)CC4)c(Nc4cccnc4)cc-3nc3ccccc32)cc1 [TBI-305, 5-(4-Methylphenyl)-3-(N-isobutyl-4-piperidyl)imino-2-(3-pyridyl)amino-3,5-dihydrophenazine] | 0.125 µg/mL (≈ 0.242 µM) |
| Cc1ccc(Nc2cc3nc4ccccc4n(-c4ccc(C(F)(F)F)cc4)c-3c/c2=N\C2CCC2)cn1 [TBI-738, 5-(4-Trifluoromethylphenyl)-3-cyclobutylimino-2-(6-methyl-3-pyridyl)amino-3,5-dihydrophenazine] | 0.029 µg/mL (≈ 0.0581 µM) |
| Cc1ccc(-n2c3c/c(=N\C4CCC(O)CC4)c(Nc4cncc(C)c4)cc-3nc3ccccc32)cc1 (stereo not drawn) [TBI-337, 5-(4-Methylphenyl)-3-(4-hydroxycyclohexyl)imino-2-(5-methyl-3-pyridyl)amino-3,5-dihydrophenazine] | 0.452 µg/mL (≈ 0.923 µM) |
| COC1CCC(/N=c2\cc3n(-c4ccccc4)c4ccccc4nc-3cc2Nc2cccnc2)CC1 (stereo not drawn) [TBI-059, 5-Phenyl-3-(4-methoxycyclohexyl)imino-2-(3-pyridyl)amino-3,5-dihydrophenazine] | 0.125 µg/mL (≈ 0.263 µM) |
| COc1ncccc1Nc1cc2nc3ccccc3n(-c3ccc(OC(F)(F)F)cc3)c-2c/c1=N\C1CCN(C)CC1 [TBI-168, 5-(4-Trifluoromethoxyphenyl)-3-(N-methyl-4-piperidyl)imino-2-(2-methoxy-3-pyridyl)amino-3,5-dihydrophenazine] | 0.109 µg/mL (≈ 0.19 µM) |
| Cc1ccc(Nc2cc3nc4ccc(F)cc4n(-c4ccc(Cl)cc4)c-3c/c2=N\C(C)C)cn1 [TBI-914, 7-Fluoro-5-(4-chlorophenyl)-3-(1-methylethyl)imino-2-(6-methyl-3-pyridyl)amino-3,5-dihydrophenazine] | > 0.5 µg/mL |
| Cc1ccc(Nc2cc3nc4ccccc4n(-c4ccc(C(F)(F)F)cc4)c-3c/c2=N\C2CC2)cn1 [TBI-716, 5-(4-Trifluoromethylphenyl)-3-cyclopropylimino-2-(6-methyl-3-pyridyl)amino-3,5-dihydrophenazine] | 0.041 µg/mL (≈ 0.0844 µM) |
| COc1ncccc1Nc1cc2nc3cc(F)ccc3n(-c3ccc(Cl)c(Cl)c3)c-2c/c1=N\C1CCOCC1 [TBI-877, 8-Fluoro-5-(3,4-dichlorophenyl)-3-(4-tetrahydropyranyl)imino-2-(2-methoxy-3-pyridyl)amino-3,5-dihydrophenazine] | 0.091 µg/mL (≈ 0.161 µM) |
| COC1CCC(/N=c2\cc3n(-c4ccc(Cl)c(Cl)c4)c4ccccc4nc-3cc2Nc2cccnc2)CC1 (stereo not drawn) [TBI-352, 5-(3,4-Dichlorophenyl)-3-(4-methoxycyclohexyl)imino-2-(3-pyridyl)amino-3,5-dihydrophenazine] | 0.096 µg/mL (≈ 0.176 µM) |
| COCC(COC)/N=c1\cc2n(-c3ccc(F)cc3)c3ccccc3nc-2cc1Nc1cccnc1OC [TBI-1048, 5-(4-Fluorophenyl)-3-(1,3-dimethoxyisopropyl)imino-2-(2-methoxy-3-pyridyl)amino-3,5-dihydrophenazine] | 0.226 µg/mL (≈ 0.44 µM) |
